Experimental data reported in patent US9624214B2, “Amino-substituted imidazo[1,2-a]pyridinecarboxamides and their use” (BAYER PHARMA AKTIENGESELLSCHAFT, priority 2012, dated 2017).
Counter-ions that a name gives are not always drawn.

Each compound was assayed against T1, recombinant guanylate cyclase reporter cell line (Rattus norvegicus, UniProt P19686+P20595) (assay: B-2. Action on recombinant guanylate cyclase reporter cell line). Details: MEC = minimal effective concentration; in some cases mean values from individual determinations.
T1 construct: expressed in transfected cells
T1 sequence (P20595 1-619): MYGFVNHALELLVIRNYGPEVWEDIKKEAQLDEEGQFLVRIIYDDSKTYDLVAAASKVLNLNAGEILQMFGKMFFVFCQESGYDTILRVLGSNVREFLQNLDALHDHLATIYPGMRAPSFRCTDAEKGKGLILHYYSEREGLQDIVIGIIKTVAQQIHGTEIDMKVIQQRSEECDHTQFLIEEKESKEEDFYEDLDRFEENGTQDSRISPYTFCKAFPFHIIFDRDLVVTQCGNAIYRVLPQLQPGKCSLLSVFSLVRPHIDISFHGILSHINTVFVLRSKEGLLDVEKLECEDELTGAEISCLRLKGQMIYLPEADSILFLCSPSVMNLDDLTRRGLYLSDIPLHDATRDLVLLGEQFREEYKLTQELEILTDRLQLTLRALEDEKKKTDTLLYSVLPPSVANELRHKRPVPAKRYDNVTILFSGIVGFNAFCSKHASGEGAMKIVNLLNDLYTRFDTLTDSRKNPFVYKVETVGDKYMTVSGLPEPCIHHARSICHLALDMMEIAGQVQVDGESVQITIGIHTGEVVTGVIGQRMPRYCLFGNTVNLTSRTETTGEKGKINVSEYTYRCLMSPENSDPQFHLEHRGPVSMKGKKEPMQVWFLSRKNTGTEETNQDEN
T1 sequence (P19686 1-690): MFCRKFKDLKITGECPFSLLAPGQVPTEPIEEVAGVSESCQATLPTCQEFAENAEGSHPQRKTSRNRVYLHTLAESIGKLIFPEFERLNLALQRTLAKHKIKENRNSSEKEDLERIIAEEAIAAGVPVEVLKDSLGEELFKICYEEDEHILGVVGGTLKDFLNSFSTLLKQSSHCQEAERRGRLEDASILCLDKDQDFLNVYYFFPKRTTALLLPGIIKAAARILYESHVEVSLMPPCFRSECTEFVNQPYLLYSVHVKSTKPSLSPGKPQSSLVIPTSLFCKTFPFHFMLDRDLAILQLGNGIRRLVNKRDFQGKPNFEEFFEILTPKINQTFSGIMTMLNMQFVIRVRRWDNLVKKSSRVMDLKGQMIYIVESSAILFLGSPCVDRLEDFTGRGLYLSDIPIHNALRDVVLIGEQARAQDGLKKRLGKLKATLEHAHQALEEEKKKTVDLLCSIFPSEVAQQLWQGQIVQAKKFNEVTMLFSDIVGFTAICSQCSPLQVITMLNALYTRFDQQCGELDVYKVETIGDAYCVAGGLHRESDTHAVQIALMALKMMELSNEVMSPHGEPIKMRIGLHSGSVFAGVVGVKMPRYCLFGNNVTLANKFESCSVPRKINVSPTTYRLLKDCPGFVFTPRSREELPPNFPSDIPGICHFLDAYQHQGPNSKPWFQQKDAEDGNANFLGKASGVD
Assay type: cell-based
In short: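 Read-out: MEC (minimal effective concentration) in cells. Reporter line carries recombinant sGC. Some values are averages of single runs.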

| Compound | MEC |
| --- | --- |
| Cc1nc2c(OCc3c(F)cccc3F)cccn2c1C(=O)NC(CN)CC(C(F)(F)F)C(F)(F)F (single isomer, unassigned; enantiomer a) [Example 7, ent-N-[1-Amino-5,5,5-trifluoro-4-(trifluoromethyl)pentan-2-yl]-8-[(2,6-difluorobenzyl)oxy]-2-methylimidazo[1,2-a]pyridine-3-carboxamide (Enantiomer A)] | 1.00 µM |
| Cc1nc2c(OCc3c(F)cccc3F)cccn2c1C(=O)NC(CN)c1ccc(F)c(F)c1 (single isomer, unassigned; enantiomer a) [Example 12, ent-N-[2-Amino-1-(3,4-difluorophenyl)ethyl]-8-[(2,6-difluorobenzyl)oxy]-2-methylimidazo[1,2-a]-pyridine-3-carboxamide (Enantiomer A)] | 1.00 µM |
| Cc1nc2c(OCc3c(F)cccc3F)cccn2c1C(=O)NC(C)CN (single isomer, unassigned; enantiomer a) [Example 19, ent-N-(1-Aminopropan-2-yl)-8-[(2,6-difluorobenzyl)oxy]-2-methylimidazo[1,2-a]pyridine-3-carboxamide (Enantiomer A)] | 1.66 µM |
| Cc1nc2c(OCc3c(F)cccc3F)cc(Cl)cn2c1C(=O)NCC(C)N (single isomer, unassigned; enantiomer a) [Example 29, ent-N-(2-Aminopropyl)-6-chloro-8-[(2,6-difluorobenzyl)oxy]-2-methylimidazo[1,2-a]pyridine-3-carboxamide (Enantiomer A)] | 0.20 µM |
| Cc1cc(OCc2c(F)cccc2F)c2nc(C)c(C(=O)NCC(C)(N)C3CC3)n2c1 (single isomer, unassigned; enantiomer a) [Example 260, ent-N-(2-Amino-2-cyclopropylpropyl)-8-[(2,6-difluorobenzyl)oxy]-2,6-dimethylimidazo[1,2-a]-pyridine-3-carboxamide (Enantiomer A)] | 0.10 µM |
| Cc1nc2c(OCc3c(F)cccc3F)cccn2c1C(=O)NCC(C)(N)CCOCc1ccccc1 (single isomer, unassigned; enantiomer a) [Example 266, ent-N-[2-Amino-4-(benzyloxy)-2-methylbutyl]-8-[(2,6-difluorobenzyl)oxy]-2-methylimidazo[1,2-a]pyridine-3-carboxamide (Enantiomer A)] | 0.03 µM |
| Cc1nc2c(OCc3c(F)cccc3F)cccn2c1C(=O)NCC(C)(N)CCO (single isomer, unassigned; enantiomer a) [Example 272, ent-N-(2-Amino-4-hydroxy-2-methylbutyl)-8-[(2,6-difluorobenzyl)oxy]-2-methylimidazo[1,2-a]-pyridine-3-carboxamide (Enantiomer A)] | 5.5 µM |
| CCC(C)(N)CNC(=O)c1c(C)nc2c(OCc3c(F)ccc(F)c3F)cc(C)cn12 (single isomer, unassigned; enantiomer a) [Example 274, ent-N-(2-Amino-2-methylbutyl)-2,6-dimethyl-8-[(2,3,6-trifluorobenzyl)oxy]imidazo[1,2-a]-pyridine-3-carboxamide (Enantiomer A)] | 0.10 µM |
| CCC(C)(N)CNC(=O)c1c(C)nc2c(OCc3c(F)cccc3F)cc(OC)cn12 (single isomer, unassigned; enantiomer a) [Example 279, ent-N-(2-amino-2-methylbutyl)-8-[(2,6-difluorobenzyl)oxy]-6-methoxy-2-methylimidazo[1,2-a]pyridine-3-carboxamide (Enantiomer A)] | 0.3 µM |
| CCC(C)(N)CNC(=O)c1c(C)nc2c(OCc3c(F)cccc3F)cc(C(F)F)cn12 (single isomer, unassigned; enantiomer a) [Example 287, ent-N-(2-amino-2-methylbutyl)-8-[(2,6-difluorobenzyl)oxy]-6-(difluoromethyl)-2-methylimidazo[1,2-a]pyridine-3-carboxamide Formate (Enantiomer A)] | 0.3 µM |
| CCC(C)(N)CNC(=O)c1c(C)nc2c(OCc3c(F)cccc3F)cc(C(F)F)cn12 (single isomer, unassigned; enantiomer a) [Example 288, ent-N-(2-amino-2-methylbutyl)-8-[(2,6-difluorobenzyl)oxy]-6-(difluoromethyl)-2-methylimidazo[1,2-a]pyridine-3-carboxamide (Enantiomer A)] | 0.3 µM |

Second part, the compound after the results:

| MEC | Compound |
| --- | --- |
| 3.00 µM | COCC(N)CNC(=O)c1c(C)nc2c(OCc3c(F)cccc3F)cccn12 (single isomer, unassigned) [Example 247, ent-N-(2-Amino-3-methoxypropyl)-8-[(2,6-difluorobenzyl)oxy]-2-methylimidazo[1,2-a]pyridine-3-carboxamide] |
| 0.10 µM | CCCC(C)(N)CNC(=O)c1c(C)nc2c(OCc3c(F)ccc(F)c3F)cc(C)cn12 (single isomer, unassigned) [Example 295, ent-N-(2-amino-2-methylpentyl)-2,6-dimethyl-8-[(2,3,6-trifluorobenzyl)oxy]imidazo[1,2-a]pyridine-3-carboxamide] |
| 0.10 µM | CCCC(C)(N)CNC(=O)c1c(C)nc2c(OCc3c(F)ccc(F)c3F)cc(C)cn12 (single isomer, unassigned) [Example 304, ent-N-(2-amino-2-methylpentyl)-2,6-dimethyl-8-[(2,3,6-trifluorobenzyl)oxy]imidazo[1,2-a]pyridine-3-carboxamide] |
| 0.30 µM | Cc1cc(OCc2c(F)cccc2F)c2nc(C)c(C(=O)NC3CCC(N)C3)n2c1 (single isomer, unassigned) [Example 309, ent-N-(3-aminocyclopentyl)-8-[(2,6-difluorobenzyl)oxy]-2,6-dimethylimidazo[1,2-a]pyridine-3-carboxamide] |
| 0.55 µM | Cc1cc(OCc2c(F)cccc2F)c2nc(C)c(C(=O)NCC(C)(N)CO)n2c1 (single isomer, unassigned; enantiomer a) [Example 268, ent-N-(2-Amino-3-hydroxy-2-methylpropyl)-8-[(2,6-difluorobenzyl)oxy]-2,6-dimethylimidazo-[1,2-a]pyridine-3-carboxamide (Enantiomer A)] |
| 0.30 µM | Cc1cc(OCc2c(F)cccc2F)c2nc(C)c(C(=O)NCC(C)(N)CCO)n2c1 (single isomer, unassigned; enantiomer a) [Example 271, ent-N-(2-Amino-4-hydroxy-2-methylbutyl)-8-[(2,6-difluorobenzyl)oxy]-2,6-dimethylimidazo[1,2-a]pyridine-3-carboxamide (Enantiomer A)] |
| 0.3 µM | Cc1cc(OCc2c(F)cccc2F)c2nc(C)c(C(=O)NCC(C)(N)CF)n2c1 (single isomer, unassigned; enantiomer a) [Example 283, ent-N-(2-amino-3-fluoro-2-methylpropyl)-8-[(2,6-difluorobenzyl)oxy]-2,6-dimethylimidazo[1,2-a]pyridine-3-carboxamide (Enantiomer A)] |
| 0.3 µM | Cc1cc(OCc2c(F)ccc(F)c2F)c2nc(C)c(C(=O)NCC(C)(N)CF)n2c1 (single isomer, unassigned; enantiomer a) [Example 285, ent-N-(2-amino-3-fluoro-2-methylpropyl)-2,6-dimethyl-8-[(2,3,6-trifluorobenzyl)oxy]imidazo[1,2-a]pyridine-3-carboxamide (Enantiomer A)] |
